US10272081B2, “SHIP1 modulators and methods related thereto” (Aquinox Pharmaceuticals (Canada) Inc., priority 2013, dated 2019)

Legend:
His-hSHIP1 enzyme [1] = target: T1, His-hSHIP1 enzyme (Homo sapiens, UniProt Q92835); assay: His-hSHIP1 activity, approach 1 (phosphate release from IP4, Biomol Green); assay type: biochemical; details: activation of His-hSHIP1; IP4 50 μM; test compound 0-300 μM; no asterisk in Table 2
T1 construct: His
T1 sequence (Q92835 1-1189): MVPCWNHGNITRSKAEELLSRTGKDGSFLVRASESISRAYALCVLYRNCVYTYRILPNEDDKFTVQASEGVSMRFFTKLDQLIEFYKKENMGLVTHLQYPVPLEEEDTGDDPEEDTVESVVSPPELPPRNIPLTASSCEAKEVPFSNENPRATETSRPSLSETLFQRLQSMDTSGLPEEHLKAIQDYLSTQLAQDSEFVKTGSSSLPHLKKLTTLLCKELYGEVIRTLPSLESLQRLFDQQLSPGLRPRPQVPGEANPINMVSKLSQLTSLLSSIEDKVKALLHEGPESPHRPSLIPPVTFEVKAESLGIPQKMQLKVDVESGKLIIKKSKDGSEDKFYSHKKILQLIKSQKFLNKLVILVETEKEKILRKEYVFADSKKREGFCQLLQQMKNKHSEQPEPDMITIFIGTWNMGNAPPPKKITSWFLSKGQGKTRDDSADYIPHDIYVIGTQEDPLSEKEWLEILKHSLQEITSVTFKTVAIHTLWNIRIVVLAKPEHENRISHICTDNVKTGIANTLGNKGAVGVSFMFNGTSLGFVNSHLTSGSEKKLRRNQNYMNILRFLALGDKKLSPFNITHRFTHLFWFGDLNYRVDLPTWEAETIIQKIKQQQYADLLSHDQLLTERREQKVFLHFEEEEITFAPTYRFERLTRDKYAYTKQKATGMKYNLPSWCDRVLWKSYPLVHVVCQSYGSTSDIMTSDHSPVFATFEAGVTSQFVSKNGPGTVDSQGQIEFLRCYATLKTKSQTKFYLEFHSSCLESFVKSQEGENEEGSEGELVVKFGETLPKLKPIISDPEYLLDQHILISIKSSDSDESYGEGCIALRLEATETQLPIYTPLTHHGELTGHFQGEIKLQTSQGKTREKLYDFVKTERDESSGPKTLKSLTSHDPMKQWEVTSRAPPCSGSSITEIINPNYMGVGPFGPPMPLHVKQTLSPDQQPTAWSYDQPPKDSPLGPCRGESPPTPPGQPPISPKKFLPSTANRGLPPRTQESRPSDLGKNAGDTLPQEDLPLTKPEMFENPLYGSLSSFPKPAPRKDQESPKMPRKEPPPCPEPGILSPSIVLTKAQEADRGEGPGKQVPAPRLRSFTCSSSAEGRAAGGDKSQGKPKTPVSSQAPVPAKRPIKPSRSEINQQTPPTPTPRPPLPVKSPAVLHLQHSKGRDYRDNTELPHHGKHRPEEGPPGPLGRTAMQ
Procedure: (§1) Test compounds are dissolved in 95% ethanol to form stock solutions. Before screening, the stock solutions are diluted with Phosphatase Assay Buffer (20 mM Tris-HCL, 10 mM MgCl2 pH 7.5, 0.02% Tween 20) to form working assay solutions that contain 10% ethanol. The assay is carried out on 96-well microtiter plates using a modified procedure of that reported by Ong et al., Blood 110, 1942-1949, 2007 and Yang et al., Org Lett 7, 1073-1076, 2005, both of which references are incorporated herein by reference in their entirety.
Data were generated by one of two variant methods. Test compounds are screened by one of two approaches described as follows. In the first approach, each reaction contains 5 μL of His-hSHIP1 enzyme (5-20 ng), 10 μL of the substrate, 1,3,4,5-inositol tetrakisphosphate (IP4; 50 μM final), 5 μL of Phosphatase Assay Buffer, and 5 µL of test compound at various concentrations in 10% ethanol (0-300 μM final). Control blanks are also prepared by replacing His-hSHIP1 enzyme, IP4, or test compounds with Phosphatase Assay Buffer. After adding the reaction components in a 96-well microtiter plate on ice, the reaction is mixed by briefly shaking the plate vigorously. The reaction is then incubated at 37° C. for 15 min with gentle shaking followed by addition of 100 μL of Biomol Green Reagent (BIOMOL, Pa., USA) to terminate the reaction. The free phosphate released from IP4 by His-hSHIP1 binds to the Biomol Green Reagent, which turns the dye to green color. After incubating the mixture for 20 min at room temperature for color development, the absorbance is read with SpectraMax Plus 96-well plate reader (Molecular Devices, Sunnyvale, Calif., USA) at a wavelength of 650 nm.

[2] = system: passive cutaneous anaphylaxis in mice; assay: Passive cutaneous anaphylaxis in mice; assay type: in vivo; details: oral gavage, doses less than 20 mg/kg
Procedure: The activity of representative compounds on passive cutaneous anaphylaxis in mice was evaluated according to the procedures disclosed by Ovary, J Immunol 81, 355-357, 1958 and Halpern et al., Br J Pharmacol Chemother 20, 389-398, 1963, both of which are incorporated herein by reference in their entirety.
To induce a passive cutaneous anaphylaxis, mice undergo intradermal ear inoculation on their right ear with 25 ng in 20 μL of anti-DNP-IgE. The left ears are untreated and serve as negative controls. Twenty-four hours after inoculation, all mice are administered test compound by oral gavage (PO). Sixty minutes after oral administration, mice are given a tail vein injection of 2% Evan's Blue (0.2 μm filtered, in 200 μL saline) followed by a second tail IV injection of 100 μg DNP-HSA (in 200 μL). Sixty minutes following the DNP-HAS injection, mice are euthanized using CO2 inhalation. Subsequently, ear biopsies are performed by taking four millimetre punches from both ears, which then undergo Evan's Blue extraction using formamide incubation in 96 well plates. Eighty μL of eluents are transferred to flat-bottom 96-well plates and absorbance read using SpectraMax M5 spectrophotometer (Molecular Devices, Sunnyvale, Calif., USA) at 620 nm. Background readings from all samples are taken at 740 nm and subtracted from the 620 nm readings. Data are reported as OD.

[3] = system: Akt phosphorylation in Molt-4 (SHIP1+) lymphocytes; assay: Akt phosphorylation in lymphocytes, Molt-4 (Western blot); assay type: cell-based; parameters: key: +: inhibits Akt phosphorylation at 10 μM; −: no effect on Akt phosphorylation at 10 μM; details: 10 μM; IGF-1 stimulated Molt-4 (PTEN−/SHIP1+) cells
Procedure: (§2) Jurkat (PTEN−/SHIP1−) or Molt-4 (PTEN−/SHIP1+) cells are starved in serum free RPMI for overnight. In a 15 mL conical tube, 2-3 million serum starved cells (1 million cells per mL) are treated with various concentrations of test compound (0.1, 1, or 10 μM final in 0.1% DMSO) for 30 min at 37° C. followed by stimulation with 100 ng/mL of IGF-1 for 1 hour at 37° C. After stimulation, cells are washed once with ice-cold DPBS and lysed with Lysis Buffer (20 mM Tris-HCl, pH 7.5, 140 mM NaCl, 1% NP-40, Complete Mini Protease Inhibitor Cocktail, 10 mM NaF, 1 mM Na3VO4, 1 mM β-glycerolphosphate) on ice for 30 min with vortexing every 10 min. Samples are then centrifuged at 13,000 rpm for 20 min, and supernatants are collected as total cell lysate samples. Protein concentration is determined using bicinchonic acid assay, and about 15 μg of total protein from each sample is loaded and separated on a 4-12% Tris-Glycine gel. After SDS-PAGE, proteins are transferred from the gel to a nitrocellulose membrane. The membrane is blocked in 5% BSA in PBS containing 0.1% Tween-20 (PBS-T) for 1 hour at room temperature before probing with primary antibodies for overnight at 4° C. The following antibodies are used: mouse anti-SHIP1 (1:500 dilution; Santa Cruz, Calif., USA), rabbit anti-phospho-Akt(Ser473) (1:1000 dilution; Cell Signaling Technologies, MA, USA), rabbit anti-Akt (1:1000; Cell Signaling Technologies, MA, USA), and rabbit anti-actin (1:2000; Cell Signaling Technologies, MA, USA). The membrane is then incubated with goat anti-rabbit or anti-mouse secondary antibodies (1:3000) for 1 hour at room temperature. Target proteins on the membrane are detected with ECL solution and exposed on a film.

His-hSHIP1 enzyme [4] = target: T1, His-hSHIP1 enzyme; assay: His-hSHIP1 activity, approach 2 (ratio of initial velocities IP4 25/IP4 250); assay type: biochemical; parameters: key: +++: higher than reference or reference - 15%; ++: reference - 16% to reference - 30%; +: reference - 31% or lower; details: ratio of initial velocities IP4 25/IP4 250 versus reference SHIP1 activator; asterisk in Table 2
Procedure: as §1
In the second approach, a master mix is prepared that contains […] (0.4-1.6 ng/μL final), 25 μL of the substrate, IP4 (25 or 250 μM final), and 50 μL of test compound in 3.3% ethanol ([…]). Control blanks are also prepared by replacing His-hSHIP1 enzyme, IP4, or test compounds with Phosphate Assay Buffer. […] Each reaction component is preincubated at 37° C. for 30 min before adding to a 96-well microtiter plate. The master mix is then incubated at 37° C. At time 0, 20, 25 and 30 min, 25 μL of the master mix is removed and transferred to a new 96-well microtiter plate, to which 100 μL of Biomol Green Reagent is added to stop the reaction. After incubating the mixture for 20 min at room temperature for color development, the absorbance is read with SpectraMax Plus 96-well plate reader at a wavelength of 650 nm. Phosphate released is plotted against time to calculate the initial velocities (i.e., slope of the graph) at each IP4 concentration. The initial velocities are baseline corrected and the ratio of initial velocities (IP425/IP4250) is calculated and used to rate the test compounds.

[5] = system: Akt phosphorylation in Jurkat (SHIP1−) lymphocytes; assay: Akt phosphorylation in lymphocytes, Jurkat (Western blot); assay type: cell-based; parameters: key: +: inhibits Akt phosphorylation at 10 μM; −: no effect on Akt phosphorylation at 10 μM; details: 10 μM; IGF-1 stimulated Jurkat (PTEN−/SHIP1−) cells
Procedure: as §2

Compound	Scoring, Approach 1 (% increase relative to background) (His-hSHIP1 enzyme [1])	Scoring, Approach 2 (Initial velocity Ratio) (His-hSHIP1 enzyme [4])	% Inhibition of allergen-induced passive cutaneous anaphylaxis [2]	Molt-4 (SHIP +), Akt phosphorylation [3]	Jurkat (SHIP1 −), Akt phosphorylation [5]
Cc1cc(O)cc(C(=O)[C@H]2C(C)C(N)C[C@H]3C(C)(C)CCC[C@]23C)c1.Cl (stereo partly drawn) [Compound No. 22, 3-{[(1S,4aS,8aS)-3-amino-2,5,5,8a-tetramethyl-decahydronaphthalen-1-yl]carbonyl}-5-methylphenol hydrochloride]	+ (0 < x < 50)			+	−
C=C1[C@H](C(=O)c2cc(OC)cc(OC)c2)[C@@]2(C)CCCC(C)(C)[C@@H]2C[C@H]1O [Compound No. 141, (2R,4R,4aS,8aS)-4-[(3,5-dimethoxyphenyl)carbonyl]-4a,8,8-trimethyl-3-methylidene-decahydronaphthalen-2-ol]		+			
Cc1cc(O)cc(C(=O)[C@H]2[C@H](C)[C@H](NCc3cnc[nH]3)C[C@H]3C(C)(C)CCC[C@]23C)c1 [Compound No. 137, 3-{[(1S,2S,3R,4aS,8aS)-3-[(1H-imidazol-5-ylmethyl)amino]-2,5,5,8a-tetramethyl-decahydronaphthalen-1-yl]carbonyl}-5-methylphenol]		++			
Cc1cc(O)cc(C(=O)[C@H]2[C@H](C)C(C(=O)O)C[C@H]3C(C)(C)CCC[C@]23C)c1 (stereo partly drawn) [Compound No. 68, (3S,4S,4aS,8aS)-4-[(3-hydroxy-5-methylphenyl)carbonyl]-3,4a,8,8-tetramethyl-decahydronaphthalene-2-carboxylic acid]		+++		−	−
Cc1cc(O)cc(C(=O)[C@H]2[C@H](C)[C@H](NS(C)(=O)=O)C[C@H]3C(C)(C)CCC[C@]23C)c1 [Compound No. 176, N-[(2R,3S,4S,4aS,8aS)-4-[(3-hydroxy-5-methylphenyl)carbonyl]-3,4a,8,8-tetramethyl-decahydronaphthalen-2-yl]methanesulfonamide]		++			

Continued, in another order:

Scoring, Approach 1 (% increase relative to background) (His-hSHIP1 enzyme [1])	Scoring, Approach 2 (Initial velocity Ratio) (His-hSHIP1 enzyme [4])	Compound	% Inhibition of allergen-induced passive cutaneous anaphylaxis [2]	Molt-4 (SHIP +), Akt phosphorylation [3]	Jurkat (SHIP1 −), Akt phosphorylation [5]
+++ (x ≥65)		C[C@H]1CC[C@H]2C(C)(C)CCC[C@]2(C)[C@H]1CC(O)c1cc(O)cc(O)c1 (stereo partly drawn) [Compound No. 58, 5-{2-[(1S,2S,4aS,8aR)-2,5,5,8a-tetramethyl-decahydronaphthalen-1-yl]-1-hydroxyethyl}benzene-1,3-diol]	+++ (>50% inhibition)		
	+++	Cc1cc(O)cc(C[C@H]2[C@@H](C(=O)O)CC[C@H]3C(C)(C)CCC[C@]23C)c1 [Compound No. 20, (1S,2S,4aS,8aR)-1-[(3-hydroxy-5-methylphenyl)methyl]-5,5,8a-trimethyl-decahydronaphthalene-2-carboxylic acid]		−	−
+ (0 < x < 50)		CC1(C)CCC[C@]2(C)[C@@H](COc3cc(O)cc(O)c3)[C@](C)(O)CC[C@@H]12 [Compound No. 38, 5-{[(1S,2R,4aS,8aS)-2-hydroxy-2,5,5,8a-tetramethyl-decahydronaphthalen-1-yl]methoxy}benzene-1,3-diol]	+++ (>50% inhibition)		
